Experimental findings from US7744933B2, “Use of unsaponifiable components of vegetable oils for preparing a cosmetic and related treatments” (Laboratories Expanscience, priority 1998, dated 2010) are described below.

This test has as its system PAI-1. Description: 35S-methionine radiolabelling for the synthesis of PAI-1 in chondrocytes (SDS-PAGE, fluorography). The test is classed as cell-based, bovine. The note with it: 24 hours; Piasclédine 300 10 μg/ml or TGF-β1 1 ng/ml; cell+matrix fraction. How it is done:
The chondrocytes are isolated from calf cartilages as described in the article by Benya et al. (“The progeny of articular chondrocytes synthesize collagen types I and II trimer, but not type II. Verification by cyanogen bromide peptide analysis”, Biochemistry 1977; 16: 865-872). Primary cultures of chondrocytes are used in order to minimize the phenotypic changes. The cultures are plated at the rate of 6.0×10^6 cells per 175-cm^2 dish (for the extraction of RNA), at the rate of 5.0×10^6 cells per well in 6-well plates (9.6 cm^2) (for the labelling of PAI-1) and at the rate of 1.2×10^6 cells in 100-mm Petri dishes (transfection). […]
The confluent cultures in 6-well plates (9.6 cm^2) are labelled with [^35S]methionine (40 μCi/nil, Arnersham, France) in the presence of Piasclédine 300® (10 μg/nil) and TGF-β1 (1 ng/ml) for 24 hours. […] The band at 46 kD is determined to correspond to PAI-1 by previous immunoblotting using a rabbit polyclonal anti-PAI-1 antibody (Dako, Copenhagen, Denmark) as described in the article by Laiho M et al., reference cited above.
It was observed that the medium contained only minor quantities of newly-synthesized PAI-1. […]

Take “TGF-β1: transforming growth factor β1 protein, 1 ng/ml, marketed by R & D Systems, used as positive control”: the “PAI-1 fraction (synthesis of PAI-1) versus control cultures” value is “significantly greater”.
